One data set relates to heroin addict. As to conditions: oral, cited from earlier work.
The next data set addresses hERG potassium channels (Homo sapiens, UniProt Q12809). As to conditions: high doses; cited from earlier work.
Data set [1] can be described thus: Pharmacokinetic evaluation in rats after bolus IV administration (noribogaine in plasma). The class given is in vivo, Sprague Dawley rats. How it is done: Pharmacokinetic Evaluation of the Tissue Distribution of Two Test Articles (Noribogaine and BTLS (Brain-Targeted Liposomes)-Noribogaine) in Rats
This study was conducted in adult male Sprague Dawley rats, weighing 250-275 g on arrival. Animals were housed according to the vivarium SOP on a 12-hr light cycle with food and water ad libitum.
72 rats were divided into 12 groups of 6. Test articles were dosed at 10 mg/kg of active substance (generic and liposomal formulation) and administered IV through the tail vein as a bolus. Animals were sampled for 24 hours after administration. Terminal blood and tissue samples (brain, heart, kidney, liver) were collected at 0.08, 0.25, 1, 2, 4 and 8 hours after the dose. The study compared the two groups, noribogaine and BTLS-noribogaine formulation. Concentration of noribogaine in the plasma and tissues was measured ex vivo and pharmacokinetic analysis was performed.

One may read the Vss as a proportionality between amount in the body and measured concentration, not a real space. Low readings indicate little distribution into tissue, high ones wide distribution into tissue. Usually Cmax stands for the maximum level reached in the sampled fluid or tissue. What is called Tmax is the time from dosing to the highest level.

hERG potassium channels, sequence (Q12809 whole entry): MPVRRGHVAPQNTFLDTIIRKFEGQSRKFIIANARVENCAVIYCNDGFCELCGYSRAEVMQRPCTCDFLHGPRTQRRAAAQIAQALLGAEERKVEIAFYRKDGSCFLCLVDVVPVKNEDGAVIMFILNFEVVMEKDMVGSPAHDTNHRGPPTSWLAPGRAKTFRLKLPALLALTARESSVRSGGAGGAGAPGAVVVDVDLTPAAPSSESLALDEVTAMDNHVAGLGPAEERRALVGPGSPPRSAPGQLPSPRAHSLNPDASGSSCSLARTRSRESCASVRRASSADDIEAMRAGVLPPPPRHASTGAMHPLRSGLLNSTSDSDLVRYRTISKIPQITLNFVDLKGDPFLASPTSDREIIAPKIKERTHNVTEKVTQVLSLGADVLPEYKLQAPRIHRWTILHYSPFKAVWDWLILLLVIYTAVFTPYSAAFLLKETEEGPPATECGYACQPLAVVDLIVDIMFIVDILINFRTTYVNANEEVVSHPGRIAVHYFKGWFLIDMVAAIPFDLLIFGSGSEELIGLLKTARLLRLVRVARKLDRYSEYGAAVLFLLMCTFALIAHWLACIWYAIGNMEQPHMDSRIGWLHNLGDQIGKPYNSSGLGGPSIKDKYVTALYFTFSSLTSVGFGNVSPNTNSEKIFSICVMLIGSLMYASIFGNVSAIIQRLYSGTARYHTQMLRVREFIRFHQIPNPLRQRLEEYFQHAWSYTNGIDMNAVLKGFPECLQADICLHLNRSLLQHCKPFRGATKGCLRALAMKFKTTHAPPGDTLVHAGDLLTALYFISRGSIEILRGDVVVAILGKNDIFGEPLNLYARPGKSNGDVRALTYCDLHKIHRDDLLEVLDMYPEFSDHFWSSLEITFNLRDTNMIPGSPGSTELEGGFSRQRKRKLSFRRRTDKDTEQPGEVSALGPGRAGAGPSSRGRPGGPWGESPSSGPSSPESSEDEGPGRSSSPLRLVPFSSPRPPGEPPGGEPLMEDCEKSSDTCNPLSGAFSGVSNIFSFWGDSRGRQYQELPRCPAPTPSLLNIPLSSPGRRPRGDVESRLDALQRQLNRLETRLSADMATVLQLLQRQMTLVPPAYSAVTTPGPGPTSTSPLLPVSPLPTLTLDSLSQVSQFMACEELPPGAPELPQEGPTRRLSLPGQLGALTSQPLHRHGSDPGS

Regarding ibogaine, the “Treatments effective, share of cases” value with heroin addict (6 mg/kg to 19 mg/kg) is given as 71%. Besides, the “Duration of effect of a series of 4 treatments” value in the data set on heroin addict (series of 4 treatments) is recorded as “approximately 3 years”. Besides, in the data set on heroin addict (single treatment), the “Duration of effect of a single treatment” value is recorded as “about 6 months”. Also, the minimum effective dose in the data set on heroin addict is listed as 400 mgs.
With `CC[C@H]1C[C@H]2C[C@H]3c4[nH]c5ccc(O)cc5c4CCN(C2)[C@@H]13` [NOR, noribogaine], the “Cardiotoxicity: long QT syndrome / hERG block” value at hERG potassium channels is “cause long QT syndrome by blocking hERG potassium channels”. Besides, in data set [1] (rat), the Cl stood at 0.0064 mL/h and the Vss worked out at 0.0119 mL. For the same molecule, in data set [1] (rat plasma), the Cmax was 223.6 ng/mL, the T_half came out at 1.4558 h and the Tmax amounted to 30 min.
